Experimental data: publication PMC9398908, “GLP-1-mediated delivery of tesaglitazar improves obesity and glucose metabolism in male mice” (Nature Metabolism, 2022)
Several values for one entry are separate records, joined by “and”; a condition that tells them apart may be missing. Equal values may be shown once.

Experiments:
[1] = target: T1, hGLP-1R (Homo sapiens, UniProt P43220); assay: Ligand-induced hGLP-1R-GFP Mini-Gαs recruitment (BRET) in mouse MIN6 β-cells; format: cell-based; settings: Fig. 1d, in words
T1 construct: host or cells: HEK293T, transient transfection
Protocol: (§1) HEK293T cells (700,000 per well) were seeded in six-well plates and incubated to 70% confluency in DMEM (10% FBS, 1% Pen/Strep). Twenty-four hours following seeding, transient transfections were performed using Lipofectamine 2000 (catalogue no. 11668019, Invitrogen) according to the manufacturer’s protocol without including additional transformation carrier DNA.
(§2) Twenty-four hours following transfection, HEK293T cells or MIN6 cells were washed with PBS and resuspended in FluoroBrite phenol red-free complete media (catalogue no. A1896701, Life Technologies) containing 5% FBS and 2 mM of L-glutamine (catalogue no. 25030081, Life Technologies). 100,000 cells per well were plated into poly-D-lysine-coated (catalogue no. P6403, Sigma-Aldrich) 96-well white polystyrene LumiNunc plates (catalogue no. 10072151, Thermo Fisher Scientific). After 24 h, the media was replaced with PBS (catalogue no. 10010056, Gibco) containing 10 μM of coelenterazine-h (catalogue no. S2011, Promega) or 1:500 dilution of NanoGlo (catalogue no. N1110, Promega). BRET measurements were taken every 30 s–2 min using a PHERAstar FS multi-mode microplate reader. […] The resulting ligand-specific ratiometric BRET signals were normalized to vehicle producing the ‘ligand-induced BRET ratio’[37], followed by an additional normalization step to well-specific baseline readings.

[2] = target: T1, hGLP-1R; assay: Ligand-induced hGLP-1R-Rluc8 internalization (BRET) in mouse MIN6 β-cells; format: cell-based; settings: Fig. 1f, in words
Protocol: as §1, §2

[3] = target: T1, hGLP-1R; assay: hGLP-1R-Rluc8 co-localization with lysosome marker Lamp1-mNeonGreen (BRET) in HEK293T cells; format: cell-based; settings: HEK293 cells; Fig. 1g; in words
Protocol: as §1, §2

[4] = test system: C57BL/6J DIO mice; assay: Chronic high-dose treatment of DIO mice (14 days, 50 nmol/kg/day): body weight, food intake, fat and lean mass (Fig. 2a–d); format: in vivo, mouse; settings: individual mice
Excerpt: Glp1r^−/− mice were kindly provided by D. Drucker (University of Toronto, Canada). All wildtype and knockout mice used in our studies were in-house bred on a C57BL/6J background. […] At the beginning of each experiment, mice were equally distributed into experimental groups according to their body weight and body composition. All animal studies were approved by the State of Bavaria, Germany, or the Insitutional Animal Care and Use Committee of the University of Cincinnati, OH, USA and conducted on the basis of the underlying animal welfare law of the respective countries. Compounds were dissolved in PBS and were s.c. administered with a volume of 5 μl g^−1 body weight in the indicated doses between 15:00 and 16:00.
Fat and lean tissue mass were measured via nuclear magnetic resonance technology (EchoMRI).

[5] = test system: C57BL/6J DIO mice; assay: Fasting blood glucose, insulin and HOMA-IR in DIO mice (Fig. 2e,f; Extended Data Fig. 3c); format: in vivo, mouse; settings: for HOMA IR: Suppl. Fig. 3c
Protocol: Glp1r^−/− mice were kindly provided by D. Drucker (University of Toronto, Canada). All wildtype and knockout mice used in our studies were in-house bred on a C57BL/6J background. Mice were double-housed and kept in a constant environment with the ambient temperature set to 22 ± 2 °C with constant humidity (45–65%) and a 12 h/12 h light/dark cycle with lights off from 06:00 until 18:00. For studies in DIO mice, male C57BL/6J mice were fed with a high-fat diet comprising 58% kilocalories from fat (D12331, Research Diets). db/db mice were fed with a normal chow diet (T1314, Altromin GmbH) throughout the study. At the beginning of each experiment, mice were equally distributed into experimental groups according to their body weight and body composition. All animal studies were approved by the State of Bavaria, Germany, or the Insitutional Animal Care and Use Committee of the University of Cincinnati, OH, USA and conducted on the basis of the underlying animal welfare law of the respective countries. Compounds were dissolved in PBS and were s.c. administered with a volume of 5 μl g^−1 body weight in the indicated doses between 15:00 and 16:00.

[6] = test system: Fabp4, Plin2, Arntl, Sema3c; assay: PPAR target gene expression in liver (Fabp4, Plin2) and skeletal muscle (Arntl, Sema3c) of DIO mice (Fig. 2j–m); format: in vivo, mouse
Protocol: For assessment of acute drug effects, animals were treated with the respective compounds 4 h before tissue harvesting. Dissected tissues were frozen immediately on dry ice, and RNA was isolated using RNeasy Mini Kits (Qiagen). mRNA levels were determined using TaqMan probes for fatty acid binding protein 4 (Fabp4, Mm00445878_m1), perilipin-2 (Plin2, Mm00475794_m1), aryl hydrocarbon receptor nuclear translocator-like protein 1 (Arntl, Mm00500223_m), semaphorin 3 C (Sema3c, Mm00443121_m1) and hypoxanthine phosphoribosyltransferase 1 (Hprt, Mm03024075_m1) in custom-made low density array cards (Thermo Fisher) or in single assays on a QuantStudio 7 Real-Time PCR system. Target gene expression was normalized to HPRT and fold change was calculated relative to vehicle-treated controls.

[7] = test system: cFOS; assay: cFOS positive neurons in hypothalamic nuclei (ARC, VMH, DMH) after a single s.c. dose (Fig. 7a,b; Extended Data Fig. 4a–c); format: in vivo, mouse
Protocol: For cFOS analysis, mice were treated s.c. with a single dose of 150 nmol kg^−1. Tissues were harvested 90 min following drug exposure. Fixed brains were coronally cryosectioned and 35-μm-thick slices were immunolabelled with the monoclonal rabbit anti-cFOS antibody (1:400, Invitrogen, no. MA5-15055) and the antirabbit Alexa546 secondary antibody (1:4,000, Invitrogen, no. A10040). According to the Allen mouse brain atlas, the ARC and the dorsomedial and ventromedial hypothalamic nuclei were captured at ×20 magnification using the Leica SP8 confocal microscope. In each region, the number of cFOS positive cells was counted in a blinded manner using Fiji/ImageJ software. For assessment of central nervous system drug appearance, mice (n = 3–4 each group) were treated with a single s.c. dose of the Cy5-labelled peptides (150 nmol kg^−1). After 90 min, tissues were harvested and processed similar to the cFOS analysis.

T1 sequence (P43220 24-463): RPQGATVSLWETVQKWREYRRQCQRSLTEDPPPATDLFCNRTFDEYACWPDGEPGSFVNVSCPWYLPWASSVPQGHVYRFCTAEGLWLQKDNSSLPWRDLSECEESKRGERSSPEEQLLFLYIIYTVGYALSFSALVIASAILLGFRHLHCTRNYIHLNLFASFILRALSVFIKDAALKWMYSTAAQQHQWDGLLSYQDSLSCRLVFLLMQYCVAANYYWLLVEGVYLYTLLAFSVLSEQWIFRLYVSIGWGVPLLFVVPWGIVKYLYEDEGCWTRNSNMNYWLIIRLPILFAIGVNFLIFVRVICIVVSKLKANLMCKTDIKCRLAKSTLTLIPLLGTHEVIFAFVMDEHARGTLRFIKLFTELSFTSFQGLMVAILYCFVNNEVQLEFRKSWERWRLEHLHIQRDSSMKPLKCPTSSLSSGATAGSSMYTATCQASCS

For `CCO[C@@H](Cc1ccc(OCCc2ccc(OS(C)(=O)=O)cc2)cc1)C(=O)O` [tesaglitazar, (S)-2-ethoxy-3-(4-(4-((methylsulfonyl)oxy)phenethoxy)phenyl) propanoic acid], the “GLP-1R-mediated Gαs recruitment” value [1] was “had no effect”, the GLP-1R internalization [2] was “had no effect” and the “lysosomal GLP-1R appearance (GLP-1R-Lamp1 colocalization)” value [3] was “had no effect”. The “delta Fat mass (%)” value ([4]; Figure 2c, sheet notes an outlier based on grubbs test) was -21.91% and -19.00% and -17.53% and -14.42% and -13.51% and -9.80% and -21.20% and -17.11%, the “delta lean mass (%)” value ([4]; Figure 2d) was -3.73% and -4.62% and -4.21% and -6.43% and -3.83% and -4.53% and -3.02% and -3.39% and the “blood glucose” value ([5]; DIO mice, Figure 2e, individual mice) was 110 mg/dL and 133 mg/dL and 143 mg/dL and 112 mg/dL and 107 mg/dL and 150 mg/dL and 108 mg/dL. The insulin ([5]; DIO mice, Figure 2f, individual mice) was 1.06 ng/mL and 1.72 ng/mL and 0.73 ng/mL and 1.32 ng/mL and 2.56 ng/mL and 2.63 ng/mL and 1.88 ng/mL and 1.65 ng/mL, the “HOMA IR” value ([5]; animal 1 of the group) was 9.08 and the “HOMA IR” value ([5]; animal 2 of the group) was 17.60. The “HOMA IR” value ([5]; animal 3 of the group) was 17.24, the “HOMA IR” value ([5]; animal 4 of the group) was 17.30 and the “HOMA IR” value ([5]; animal 5 of the group) was 10.92. The “HOMA IR” value ([5]; animal 6 of the group) was 7.15, the “HOMA IR” value ([5]; animal 7 of the group) was 14.05 and the “HOMA IR” value ([5]; animal 8 of the group) was 6.44. The “expression of known PPAR target genes in liver (Fabp4, Plin2) and skeletal muscle (Arntl, Sema3c)” value ([6]; 30-week-old male DIO mice, 3 days, 50 nmol kg−1 per day, Fig. 2j–m, in words) was “induced expression of known PPAR target genes”, the Fabp4 ([6]; DIO mice, Figure 2j, gene expression in liver, individual mice) was 8.80 and 6.98 and 3.76 and 4.88 and 3.64 and 11.43 and 6.16 and 1.27 and the Plin2 ([6]; DIO mice, Figure 2k, gene expression in liver, individual mice) was 1.24 and 1.51 and 1.57 and 2.00 and 1.99 and 2.32 and 2.01 and 1.45. The Arntl ([6]; DIO mice, Figure 2l, gene expression in skeletal muscle, individual mice, sheet notes an outlier based on grubbs test) was 1.55 and 1.75 and 2.01 and 1.16 and 1.39 and 1.34 and 1.60 and 1.28, the Sema3c ([6]; DIO mice, Figure 2m, gene expression in skeletal muscle, individual mice, sheet notes an outlier based on grubbs test) was 1.70 and 1.69 and 1.38 and 1.05 and 1.02 and 1.72 and 1.95 and 2.14 and the “cFOS (cFos positive neurons in the ARC)” value ([7]; Fig. 7b, 47-week-old male DIO mice, single s.c. 150 nmol kg−1, 90 min, individual mice) was 43 and 38 and 21 and 45. It also gave a cFOS ([7]; Suppl. Fig. 4b, animal 1 of the group) of 55, a cFOS ([7]; Suppl. Fig. 4b, animal 2 of the group) of 124 and a cFOS ([7]; Suppl. Fig. 4b, animal 3 of the group) of 77. For the same molecule, the cFOS ([7]; Suppl. Fig. 4b, animal 4 of the group) was 96, the cFOS ([7]; Suppl. Fig. 4c, animal 1 of the group) was 13 and the cFOS ([7]; Suppl. Fig. 4c, animal 2 of the group) was 9. For the same molecule, the cFOS ([7]; Suppl. Fig. 4c, animal 3 of the group) was 15 and the cFOS ([7]; Suppl. Fig. 4c, animal 4 of the group) was 20.
